# Experimental data reported in PMC5333395, “Assessing histone demethylase inhibitors in cells: lessons learned” (Epigenetics & Chromatin, 2017).
# Experiments:
# Assay in all cases: AlphaScreen in vitro demethylase assay
# Format in all cases: biochemical
# KDM5B = KDM5B (Homo sapiens, UniProt Q9UGL1); details: AlphaScreen; IC50 ± SD (number of replicates); read-out: KDM5B IC50, in vitro
# Protocol: (§1) IC50 values were determined as previously described. The following amendments were made to the protocol for carrying out 2-OG competition assays.
# KDM2A = target: T1, KDM2A (Homo sapiens, UniProt Q9Y2K7); details: IC50 ± SD (number of replicates)
# T1 sequence (Q9Y2K7 1-1162): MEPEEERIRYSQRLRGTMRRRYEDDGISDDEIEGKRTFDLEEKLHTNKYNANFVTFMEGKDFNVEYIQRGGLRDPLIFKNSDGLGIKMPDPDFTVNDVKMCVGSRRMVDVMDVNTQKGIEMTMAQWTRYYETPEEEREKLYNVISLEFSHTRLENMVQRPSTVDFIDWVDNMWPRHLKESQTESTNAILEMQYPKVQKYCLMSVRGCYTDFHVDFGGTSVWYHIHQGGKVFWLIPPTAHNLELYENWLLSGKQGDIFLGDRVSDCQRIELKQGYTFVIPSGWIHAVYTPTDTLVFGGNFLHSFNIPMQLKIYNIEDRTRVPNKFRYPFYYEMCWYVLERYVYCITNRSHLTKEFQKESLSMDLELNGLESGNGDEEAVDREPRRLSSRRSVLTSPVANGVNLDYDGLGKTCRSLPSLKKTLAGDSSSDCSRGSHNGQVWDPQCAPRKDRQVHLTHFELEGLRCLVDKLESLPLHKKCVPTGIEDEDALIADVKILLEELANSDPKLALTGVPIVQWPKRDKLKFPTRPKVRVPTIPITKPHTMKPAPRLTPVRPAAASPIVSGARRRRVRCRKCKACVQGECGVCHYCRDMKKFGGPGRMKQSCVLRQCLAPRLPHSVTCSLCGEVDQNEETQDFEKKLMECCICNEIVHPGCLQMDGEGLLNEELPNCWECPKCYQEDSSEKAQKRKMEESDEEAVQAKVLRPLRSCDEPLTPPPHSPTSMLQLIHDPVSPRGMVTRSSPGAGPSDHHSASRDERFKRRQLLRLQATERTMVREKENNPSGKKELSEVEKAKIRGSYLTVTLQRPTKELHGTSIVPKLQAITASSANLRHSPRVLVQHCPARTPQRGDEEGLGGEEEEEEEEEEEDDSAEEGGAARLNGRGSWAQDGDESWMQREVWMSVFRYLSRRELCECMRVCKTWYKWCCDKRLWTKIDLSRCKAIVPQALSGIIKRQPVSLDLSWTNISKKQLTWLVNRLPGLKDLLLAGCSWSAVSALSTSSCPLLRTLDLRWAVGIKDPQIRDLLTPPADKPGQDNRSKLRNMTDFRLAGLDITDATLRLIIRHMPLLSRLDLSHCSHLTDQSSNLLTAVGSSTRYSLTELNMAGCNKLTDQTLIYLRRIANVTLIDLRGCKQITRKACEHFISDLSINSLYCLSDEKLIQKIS
# Protocol: as §1
# KDM4C = target: T2, KDM4C (Homo sapiens, UniProt Q9H3R0); details: AlphaScreen; IC50 ± SD (number of replicates); read-out: KDM4C IC50, in vitro
# T2 sequence (Q9H3R0 1-1056): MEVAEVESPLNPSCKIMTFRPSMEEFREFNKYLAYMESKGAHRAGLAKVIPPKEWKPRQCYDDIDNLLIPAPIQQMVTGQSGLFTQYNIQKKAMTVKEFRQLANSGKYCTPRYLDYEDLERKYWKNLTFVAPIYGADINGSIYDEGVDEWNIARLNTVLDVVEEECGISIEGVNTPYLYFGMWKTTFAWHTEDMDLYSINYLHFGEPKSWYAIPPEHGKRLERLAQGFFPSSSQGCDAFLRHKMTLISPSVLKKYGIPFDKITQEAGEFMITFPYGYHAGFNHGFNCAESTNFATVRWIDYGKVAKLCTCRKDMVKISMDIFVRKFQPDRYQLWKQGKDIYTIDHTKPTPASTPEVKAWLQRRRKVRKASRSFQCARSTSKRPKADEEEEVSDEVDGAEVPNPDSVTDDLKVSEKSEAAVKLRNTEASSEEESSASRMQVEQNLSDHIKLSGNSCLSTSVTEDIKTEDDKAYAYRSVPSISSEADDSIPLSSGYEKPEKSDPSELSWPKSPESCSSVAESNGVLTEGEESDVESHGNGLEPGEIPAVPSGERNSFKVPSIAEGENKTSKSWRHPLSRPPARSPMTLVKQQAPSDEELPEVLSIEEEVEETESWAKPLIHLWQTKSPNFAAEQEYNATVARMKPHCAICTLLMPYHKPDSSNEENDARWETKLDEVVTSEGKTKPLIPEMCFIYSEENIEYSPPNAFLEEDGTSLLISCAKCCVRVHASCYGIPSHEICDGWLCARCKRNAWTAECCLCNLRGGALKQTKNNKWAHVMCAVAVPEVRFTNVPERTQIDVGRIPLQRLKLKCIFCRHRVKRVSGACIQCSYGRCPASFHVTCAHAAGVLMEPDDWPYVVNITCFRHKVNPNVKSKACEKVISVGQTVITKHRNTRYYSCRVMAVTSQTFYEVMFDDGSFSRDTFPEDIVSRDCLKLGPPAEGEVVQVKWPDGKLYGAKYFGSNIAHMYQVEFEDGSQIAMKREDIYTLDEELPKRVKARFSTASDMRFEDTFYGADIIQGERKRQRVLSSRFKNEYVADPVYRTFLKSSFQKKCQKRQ
# Protocol: as §1
# KDM5B, sequence (Q9UGL1 whole entry): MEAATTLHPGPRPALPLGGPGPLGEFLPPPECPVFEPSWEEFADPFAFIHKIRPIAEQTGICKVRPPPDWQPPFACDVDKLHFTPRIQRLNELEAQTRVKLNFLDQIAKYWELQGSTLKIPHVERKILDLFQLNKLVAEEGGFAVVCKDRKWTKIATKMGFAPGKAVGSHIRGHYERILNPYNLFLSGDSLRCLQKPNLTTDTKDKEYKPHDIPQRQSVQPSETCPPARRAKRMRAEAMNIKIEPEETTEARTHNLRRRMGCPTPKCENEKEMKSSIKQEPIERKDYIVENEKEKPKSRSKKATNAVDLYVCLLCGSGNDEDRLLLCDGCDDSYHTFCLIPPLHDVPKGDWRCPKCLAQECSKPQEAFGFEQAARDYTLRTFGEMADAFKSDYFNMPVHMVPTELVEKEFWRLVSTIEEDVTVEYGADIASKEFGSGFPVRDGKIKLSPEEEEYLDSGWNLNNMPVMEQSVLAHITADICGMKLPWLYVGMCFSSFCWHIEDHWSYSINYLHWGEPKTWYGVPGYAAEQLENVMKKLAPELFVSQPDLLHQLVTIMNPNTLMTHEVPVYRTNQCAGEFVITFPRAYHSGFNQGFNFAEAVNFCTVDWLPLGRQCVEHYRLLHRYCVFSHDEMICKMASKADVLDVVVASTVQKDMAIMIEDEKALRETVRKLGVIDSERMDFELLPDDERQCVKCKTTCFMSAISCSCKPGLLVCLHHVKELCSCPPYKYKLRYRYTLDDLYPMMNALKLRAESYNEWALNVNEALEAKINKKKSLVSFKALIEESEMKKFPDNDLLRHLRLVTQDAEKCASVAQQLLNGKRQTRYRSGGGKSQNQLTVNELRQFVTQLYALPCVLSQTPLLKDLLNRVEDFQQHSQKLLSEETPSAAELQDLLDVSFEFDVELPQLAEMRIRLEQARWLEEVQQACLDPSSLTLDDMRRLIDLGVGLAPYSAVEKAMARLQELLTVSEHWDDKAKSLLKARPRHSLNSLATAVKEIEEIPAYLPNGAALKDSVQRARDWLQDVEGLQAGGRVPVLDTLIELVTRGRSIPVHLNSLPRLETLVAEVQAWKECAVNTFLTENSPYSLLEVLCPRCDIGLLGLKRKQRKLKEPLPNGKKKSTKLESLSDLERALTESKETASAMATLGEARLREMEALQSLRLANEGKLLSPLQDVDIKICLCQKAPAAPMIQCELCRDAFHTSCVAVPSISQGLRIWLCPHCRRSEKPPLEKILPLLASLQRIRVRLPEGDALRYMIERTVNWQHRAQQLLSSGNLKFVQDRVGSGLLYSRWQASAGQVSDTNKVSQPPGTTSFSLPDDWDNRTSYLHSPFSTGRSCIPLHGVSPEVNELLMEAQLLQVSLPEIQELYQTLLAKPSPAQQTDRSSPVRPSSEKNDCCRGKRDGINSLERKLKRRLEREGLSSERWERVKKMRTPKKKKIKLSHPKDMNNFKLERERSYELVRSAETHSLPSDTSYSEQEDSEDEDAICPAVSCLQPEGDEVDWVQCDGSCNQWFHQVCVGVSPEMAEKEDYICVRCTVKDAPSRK
Molecule,IC50 (KDM5B) [nM],IC50 (KDM2A) [nM],IC50 (KDM4C) [nM]
"O=c1[nH]cnc2c(-n3cc(CCN4CCC(c5cccc(Cl)c5)CC4)cn3)cccc12 [CCT366293, 8-(4-(2-(4-(3-Chlorophenyl)piperidin-1-yl)ethyl)-1H-pyrazol-1-yl)quinazolin-4(3H)-one]",> 10000,,
CCN(CCN(C)C)C(=O)CNCc1cc(C(=O)O)ccn1 [KDOAM-20],7 ± 3,2200 ± 370,190 ± 81
CCOC(=O)c1ccnc(CNCC(=O)N(CC)CCN(C)C)c1 [KDOAM-21],94 ± 65,19000 ± 10000,2800 ± 1300
CPI-455,260 ± 64,23000 ± 3500,11000 ± 2300
CCN(CCN(C)C)C(=O)CNCc1cncc(C(N)=O)c1 [KDOAM-32],> 10000,,
